Experimental data: ChEMBL document CHEMBL1133189, “Novel conformationally constrained tropane analogues by 6-endo-trig radical cyclization and stille coupling - switch of activity toward the serotonin and/or norepinephrine transporter” (J Med Chem, 2000)

Assays:
[1] = biological target: T1, Sodium-dependent noradrenaline transporter (Homo sapiens, UniProt P23975); experiment: Compound was evaluated for inhibition of [3H]NE uptake in HEK-hNET cells expressing Human norepinephrine transporter; assay type: cell-based
[2] = biological target: Norepinephrine transporter (Rattus norvegicus, UniProt Q9WTR4); experiment: Inhibition of reuptake of [3H]-NE at Norepinephrine transporter
[3] = biological target: T2, Sodium-dependent dopamine transporter (Homo sapiens, UniProt Q01959); experiment: Compound was evaluated for inhibition of [3H]DA uptake in HEK-hDAT cells expressing Human dopamine Transporter; assay type: cell-based
[4] = biological target: T2, Sodium-dependent dopamine transporter; experiment: Compound was evaluated for binding affinity to dopamine transporter using [125I]RTI-55 as a radioligand in HEK cells expressing human transporters.; assay type: cell-based, HEK293
[5] = biological target: T3, Sodium-dependent serotonin transporter (Homo sapiens, UniProt P31645); experiment: Compound was evaluated for inhibition of [3H]5-HT uptake in HEK-hSERT cells expressing Human serotonin transporter; assay type: cell-based
[6] = biological target: T1, Sodium-dependent noradrenaline transporter; experiment: Compound was evaluated for binding affinity using [125I]RTI-55 as a radioligand in HEK-hNET cells expressing human norepinephrine transporter; assay type: cell-based
[7] = biological target: Sodium-dependent dopamine transporter (Rattus norvegicus, UniProt P23977); experiment: Inhibition of reuptake of [3H]DA at Dopamine transporter (DAT)
[8] = biological target: Sodium-dependent serotonin transporter (Rattus norvegicus, UniProt P31652); experiment: Inhibition of reuptake of [3H]5-HT at serotonin transporter
[9] = biological target: T3, Sodium-dependent serotonin transporter; experiment: Compound was evaluated for binding affinity using [125I]RTI-55 as a radioligand in HEK-hSERT cells expressing human serotonin transporter; assay type: cell-based

Chain of Sodium-dependent dopamine transporter (Rattus norvegicus, UniProt P23977) (P23977 whole entry): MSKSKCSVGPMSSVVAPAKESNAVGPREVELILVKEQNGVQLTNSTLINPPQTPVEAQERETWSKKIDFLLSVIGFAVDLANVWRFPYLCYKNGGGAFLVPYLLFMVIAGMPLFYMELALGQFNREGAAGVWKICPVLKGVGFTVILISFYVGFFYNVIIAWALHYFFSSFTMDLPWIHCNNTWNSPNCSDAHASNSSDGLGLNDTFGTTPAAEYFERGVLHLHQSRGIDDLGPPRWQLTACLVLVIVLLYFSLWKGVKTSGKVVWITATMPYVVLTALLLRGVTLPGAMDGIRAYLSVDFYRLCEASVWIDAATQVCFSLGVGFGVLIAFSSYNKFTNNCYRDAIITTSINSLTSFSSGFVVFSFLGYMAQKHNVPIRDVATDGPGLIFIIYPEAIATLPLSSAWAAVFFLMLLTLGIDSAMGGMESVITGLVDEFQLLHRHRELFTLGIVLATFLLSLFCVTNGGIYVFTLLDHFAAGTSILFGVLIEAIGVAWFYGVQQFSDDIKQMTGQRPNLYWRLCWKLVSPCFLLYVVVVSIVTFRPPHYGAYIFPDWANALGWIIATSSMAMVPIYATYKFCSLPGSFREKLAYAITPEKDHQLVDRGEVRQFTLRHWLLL
T3 sequence (P31645 whole entry): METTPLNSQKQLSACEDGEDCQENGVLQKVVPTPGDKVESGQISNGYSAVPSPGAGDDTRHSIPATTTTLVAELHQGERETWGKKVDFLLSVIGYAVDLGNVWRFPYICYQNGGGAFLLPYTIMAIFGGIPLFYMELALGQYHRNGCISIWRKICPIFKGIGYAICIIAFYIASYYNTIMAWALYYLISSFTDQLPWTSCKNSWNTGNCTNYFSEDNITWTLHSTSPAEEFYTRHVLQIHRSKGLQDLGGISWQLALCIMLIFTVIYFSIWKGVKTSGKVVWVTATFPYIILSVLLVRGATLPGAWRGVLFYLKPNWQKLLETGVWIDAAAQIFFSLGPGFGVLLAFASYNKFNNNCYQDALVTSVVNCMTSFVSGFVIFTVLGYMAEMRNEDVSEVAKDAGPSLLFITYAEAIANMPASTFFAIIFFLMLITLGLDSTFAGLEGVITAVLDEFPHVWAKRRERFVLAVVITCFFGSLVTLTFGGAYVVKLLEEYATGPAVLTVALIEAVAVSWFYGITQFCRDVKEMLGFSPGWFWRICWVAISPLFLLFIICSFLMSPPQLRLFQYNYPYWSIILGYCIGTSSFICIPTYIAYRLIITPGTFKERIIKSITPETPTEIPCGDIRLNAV
Chain of Sodium-dependent serotonin transporter (Rattus norvegicus, UniProt P31652) (P31652 whole entry): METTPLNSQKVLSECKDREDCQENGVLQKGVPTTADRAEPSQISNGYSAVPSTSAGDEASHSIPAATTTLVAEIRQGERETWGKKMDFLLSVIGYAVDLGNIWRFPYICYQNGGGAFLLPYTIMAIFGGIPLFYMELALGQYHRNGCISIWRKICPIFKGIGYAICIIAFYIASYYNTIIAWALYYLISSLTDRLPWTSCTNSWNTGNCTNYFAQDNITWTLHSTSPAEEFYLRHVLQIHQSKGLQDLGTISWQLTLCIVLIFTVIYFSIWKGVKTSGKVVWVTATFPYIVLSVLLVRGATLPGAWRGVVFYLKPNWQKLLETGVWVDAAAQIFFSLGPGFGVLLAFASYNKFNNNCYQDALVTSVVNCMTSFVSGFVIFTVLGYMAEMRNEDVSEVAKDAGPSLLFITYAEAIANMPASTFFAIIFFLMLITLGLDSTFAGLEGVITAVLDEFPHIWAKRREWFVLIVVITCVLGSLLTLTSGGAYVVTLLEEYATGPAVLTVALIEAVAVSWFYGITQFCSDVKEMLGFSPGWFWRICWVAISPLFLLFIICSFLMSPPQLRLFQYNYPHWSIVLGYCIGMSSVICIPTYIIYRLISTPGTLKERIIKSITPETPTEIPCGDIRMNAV
T1 sequence (P23975 whole entry): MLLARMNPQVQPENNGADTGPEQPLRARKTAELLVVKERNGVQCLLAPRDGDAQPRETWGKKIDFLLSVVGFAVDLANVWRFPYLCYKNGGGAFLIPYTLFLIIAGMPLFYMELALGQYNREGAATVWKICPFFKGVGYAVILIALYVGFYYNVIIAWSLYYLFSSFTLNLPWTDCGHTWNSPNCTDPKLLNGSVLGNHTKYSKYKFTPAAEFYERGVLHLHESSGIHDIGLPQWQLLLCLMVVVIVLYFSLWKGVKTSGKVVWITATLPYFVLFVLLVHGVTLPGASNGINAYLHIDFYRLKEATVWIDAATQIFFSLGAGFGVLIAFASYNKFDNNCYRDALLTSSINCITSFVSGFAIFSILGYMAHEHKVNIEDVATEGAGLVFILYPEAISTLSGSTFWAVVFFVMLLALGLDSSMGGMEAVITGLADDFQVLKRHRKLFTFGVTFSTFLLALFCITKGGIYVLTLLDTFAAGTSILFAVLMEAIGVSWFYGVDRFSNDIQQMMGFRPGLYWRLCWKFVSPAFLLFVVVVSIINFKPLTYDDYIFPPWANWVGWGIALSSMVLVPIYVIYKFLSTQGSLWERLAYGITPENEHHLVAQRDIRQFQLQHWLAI
T2 sequence (Q01959 whole entry): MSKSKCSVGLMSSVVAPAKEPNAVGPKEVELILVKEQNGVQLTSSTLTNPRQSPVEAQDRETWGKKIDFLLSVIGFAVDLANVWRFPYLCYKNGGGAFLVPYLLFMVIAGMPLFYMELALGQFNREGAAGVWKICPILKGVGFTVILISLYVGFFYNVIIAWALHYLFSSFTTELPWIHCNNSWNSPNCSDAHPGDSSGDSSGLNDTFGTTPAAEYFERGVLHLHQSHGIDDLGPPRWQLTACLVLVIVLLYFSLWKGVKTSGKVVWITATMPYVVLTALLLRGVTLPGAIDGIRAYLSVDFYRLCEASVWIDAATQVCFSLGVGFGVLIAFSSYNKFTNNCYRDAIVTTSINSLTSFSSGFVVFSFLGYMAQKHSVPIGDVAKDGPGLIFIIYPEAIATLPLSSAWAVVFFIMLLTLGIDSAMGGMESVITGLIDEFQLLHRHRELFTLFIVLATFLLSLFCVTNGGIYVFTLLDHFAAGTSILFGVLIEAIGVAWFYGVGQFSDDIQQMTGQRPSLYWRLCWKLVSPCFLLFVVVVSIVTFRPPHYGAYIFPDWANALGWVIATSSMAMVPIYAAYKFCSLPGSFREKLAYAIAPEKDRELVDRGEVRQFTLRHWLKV
Chain of Norepinephrine transporter (Q9WTR4 whole entry): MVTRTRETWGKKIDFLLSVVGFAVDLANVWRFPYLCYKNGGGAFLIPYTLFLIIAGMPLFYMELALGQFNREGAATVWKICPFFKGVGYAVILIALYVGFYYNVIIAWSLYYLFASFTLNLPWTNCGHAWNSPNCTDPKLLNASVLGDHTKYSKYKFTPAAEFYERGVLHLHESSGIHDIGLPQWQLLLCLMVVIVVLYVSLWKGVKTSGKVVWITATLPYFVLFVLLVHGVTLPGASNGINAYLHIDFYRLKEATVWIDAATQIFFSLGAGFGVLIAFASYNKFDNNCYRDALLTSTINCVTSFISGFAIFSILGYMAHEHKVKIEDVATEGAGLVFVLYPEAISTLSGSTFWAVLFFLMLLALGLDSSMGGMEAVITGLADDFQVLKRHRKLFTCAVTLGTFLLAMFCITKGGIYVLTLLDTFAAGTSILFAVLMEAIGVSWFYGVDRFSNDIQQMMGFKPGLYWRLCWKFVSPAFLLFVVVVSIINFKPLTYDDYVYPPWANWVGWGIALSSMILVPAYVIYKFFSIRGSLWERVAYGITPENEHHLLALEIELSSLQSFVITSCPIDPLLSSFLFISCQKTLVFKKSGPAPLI

Structure (SMILES)	Ki [1] [nM]	Ki [2] [nM]	Ki [3] [nM]	Ki [4] [nM]	Ki [5] [nM]	Ki [6] [nM]	Ki [7] [nM]	Ki [8] [nM]	Ki [9] [nM]
COC(=O)[C@H]1C2CC[C@@H]3C[C@@H]1/C(=C/c1ccc(OC)cc1)CN23	208	187	3700	3600	53	5440	3130	56	42
COC(=O)[C@H]1C2CC[C@@H]3C[C@@H]1/C(=C/c1ccccc1)CN23	68	53	910	1570	2400	1040	481	1140	2330
COC(=O)[C@H]1C2CC[C@@H]3C[C@@H]1/C(=C/c1cccc4ccccc14)CN23	–	5370	–	–	–	–	9720	121	–
OC[C@H]1C2CC[C@@H]3C[C@@H]1/C(=C/c1ccc(Cl)c(Cl)c1)CN23	–	10500	–	–	–	–	21300	96	–
COC(=O)[C@H]1C2CC[C@@H]3C[C@@H]1/C(=C/c1ccc(F)cc1)CN23	–	584	–	–	–	–	6620	335	–
OC[C@H]1C2CC[C@@H]3C[C@@H]1/C(=C/c1ccccc1)CN23	–	2830	–	–	–	–	9690	5300	–
COC(=O)[C@H]1C2CC[C@@H]3C[C@@H]1/C(=C/c1ccc(Cl)c(Cl)c1)CN23 (stereo in doubt; 5b)	640	1000	> 10000	3320	30	3770	1920	20	0.56
COC(=O)[C@H]1C2CC[C@@H]3C[C@@H]1/C(=C/c1ccc(-c4ccccc4)cc1)CN23	–	12	–	–	–	–	477	614	–
COC(=O)[C@H]1C2CC[C@@H]3C[C@@H]1/C(=C/c1ccoc1)CN23	–	164	–	–	–	–	1880	498	–
COC(=O)[C@H]1C2CC[C@@H]3C[C@@H]1/C(=C/c1cccs1)CN23	–	26	–	–	–	–	268	2050	–
COC(=O)[C@H]1C2CC[C@@H]3C[C@@H]1/C(=C/c1ccco1)CN23	–	111	–	–	–	–	2020	3680	–
CC(=O)OC[C@H]1C2CC[C@@H]3C[C@@H]1/C(=C/c1ccccc1)CN23	–	450	–	–	–	–	1030	1050	–
COC(=O)[C@H]1C2CC[C@@H]3C[C@@H]1/C(=C\c1ccccc1)CN23	–	1530	–	–	–	–	5070	7480	–
